The source of these data is PubChem BioAssay (NCI).

Some test systems named below: A498 renal; CCRF-CEM leukemia; DU-145 prostate; HCC-2998 colon; HL-60(TB) leukemia; HOP-62 NSCLC; HT29 colon; M14 melanoma; MOLT-4 leukemia; SF-539 CNS; SK-OV-3 ovarian; SR leukemia; T-47D breast; UACC-257 melanoma.
What all share (assay): inhibition of tumour cell growth, NCI panel, 48 h

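Grown in 96-well plates, cells were treated for 48 hours with each compound at five concentrations. Insufficient inhibition: endpoint recorded as highest concentration tested. TGI: concentration producing complete growth inhibition.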 A value given as a limit tells only on which side of the number the result lay.

`CO/N=C1/c2sccc2[C@H](NC(=O)C(Cc2ccccc2)NC(=O)OC(C)(C)C)[C@@H]1O` (stereo not given in full): the TGI in the assay on A498 renal, in the assay with CCRF-CEM leukemia, in the assay with DU-145 prostate, with HCC-2998 colon, with HL-60(TB) leukemia and with HOP-62 NSCLC was more than 100 µM in each case. Also, the TGI with HT29 colon, in the assay with M14 melanoma, in the assay with MOLT-4 leukemia, in the assay on SF-539 CNS, in the assay on SK-OV-3 ovarian and with SR leukemia was more than 100 µM each time. In addition, the TGI in the assay with T-47D breast and in the assay on UACC-257 melanoma was more than 100 µM throughout.

As to `O=C(c1ccco1)N(C(=O)N1CCN(c2ccccc2)CC1)S(=O)(=O)c1ccccc1`, the TGI is more than 100 µM in the assay with A498 renal; 87.6 µM in the assay with CCRF-CEM leukemia; more than 100 µM in the assay with DU-145 prostate; more than 100 µM in the assay on HCC-2998 colon; 45.1 µM with HL-60(TB) leukemia; more than 100 µM in the assay with HOP-62 NSCLC. In addition, the TGI is more than 100 µM in the assay with HT29 colon; 60.4 µM with M14 melanoma; 49.1 µM in the assay on MOLT-4 leukemia; 41.1 µM with SF-539 CNS; more than 100 µM in the assay with SK-OV-3 ovarian; 51.4 µM with SR leukemia. The TGI in the assay on T-47D breast is 61 µM; in the assay with UACC-257 melanoma, more than 100 µM.

On to `CC(C)/C(Cl)=N/OC(=O)Nc1ccc(Cl)c(Cl)c1`, for which the TGI with A498 renal stood at 33.5 µM; in the assay with CCRF-CEM leukemia, 3.91 µM; in the assay on DU-145 prostate it was 32.5 µM; in the assay with HCC-2998 colon, 28.6 µM; in the assay on HL-60(TB) leukemia, 6.21 µM; with HOP-62 NSCLC it was 33.1 µM. Further, the TGI in the assay on HT29 colon is 13 µM; in the assay with M14 melanoma it was 6.52 µM; with MOLT-4 leukemia it was 6.2 µM; in the assay on SF-539 CNS, 28.9 µM; in the assay on SK-OV-3 ovarian it was 30.7 µM; in the assay with SR leukemia it was more than 100 µM. The values for the TGI with T-47D breast and in the assay with UACC-257 melanoma were 12.2 µM and 27.9 µM, respectively.

With `CCC1C(c2ccccc2O)c2cc3c(cc2OC1N1CCOCC1)OCO3` (stereo not given), the TGI turned out to be 27.5 µM in the assay on A498 renal; 32.7 µM in the assay on CCRF-CEM leukemia; 28 µM in the assay with DU-145 prostate; 31 µM in the assay with HCC-2998 colon; 38.8 µM in the assay on HL-60(TB) leukemia; 28.8 µM in the assay with HOP-62 NSCLC. The TGI with HT29 colon stood at 26.4 µM; with M14 melanoma, 30.6 µM; in the assay with MOLT-4 leukemia it was 27 µM; with SF-539 CNS, 30.7 µM; with SK-OV-3 ovarian, 39.6 µM; in the assay with SR leukemia, 30.8 µM. Also, the TGI is 28.8 µM in the assay on T-47D breast and 31.6 µM in the assay on UACC-257 melanoma.

`CCOC(=O)Cn1nnc2ccc(Nc3nc4ccccc4nc3-c3ccccc3)cc21`: the TGI in the assay with A498 renal was more than 100 µM; in the assay on CCRF-CEM leukemia, more than 100 µM; in the assay with DU-145 prostate, 31.8 µM; with HCC-2998 colon, 66.4 µM; in the assay on HL-60(TB) leukemia, more than 100 µM; in the assay on HOP-62 NSCLC, more than 100 µM. Besides, the TGI in the assay on HT29 colon, in the assay with M14 melanoma, in the assay with MOLT-4 leukemia, in the assay with SF-539 CNS, with SK-OV-3 ovarian and with SR leukemia was more than 100 µM in each case. In addition, the TGI in the assay on T-47D breast and with UACC-257 melanoma was more than 100 µM in each case.
